Structures can show the parent of a compound that is named as a salt.
Target: T1, CaV3.2 (Homo sapiens, UniProt O95180)
T1 construct: expressed in transfected cells; host or cells: HEK cells, stably transfected; human Kir2.1 co-expressed
Assay: CaV3.2 assay: functional evaluation of T-type calcium currents (IonWorks HT screen for hCaV3.2 / conventional whole cell patch clamp) in stably transfected HEK cells
Assay type: cell-based
Source text: Functional evaluation of voltage-gated ion channels was used to determine potency and/or single concentration efficacy of proprietary compounds. Two different methodologies were used to measure ion currents: the IonWorks HT (Molecular Devices, Sunnyvale, Calif.) a moderate throughput voltage clamp screening platform that utilizes 96-well compound plates and conventional whole cell patch clamp for lower throughput, higher fidelity determinations.
HEK cells were transiently transfected and then selected for stable heterologous expression of different channel proteins of interest. Calcium channel cell lines expressed a resting potassium current, human Kir2.1, and the pore forming α-subunit of voltage-gated calcium channels. In the case of Cav2.1 cells the auxiliary subunit, β2a, was also expressed. Calcium channel lines that were used to generate the data in this document expressed either human Cav3.2, rat Cav3.2 or human Cav2.1. The human heart sodium channel, hNav1.5, was stably expressed in CHO cells. These cells were licensed from the University of Pennsylvania.
Cell lines were grown at 37° C. in humidified incubators, equilibrated with 95% air/5% CO2. CHO cells were grown in Ham's F-12 medium. HEK cells were grown in DMEM. All media were supplemented with 10% heat-inactivated fetal bovine serum, penicillin, streptomycin and appropriate selection antibiotics (zeocin, geneticin and/or hygromycin). Cells were passaged when 80% confluent or less.
Ionworks Screen for hCaV3.2
The extracellular buffer for experiments using this instrument contained the following (mM) (NaCl 125, HEPES 10, KCl 5.4, CaCl2 1.8, MgCl2 1.8, 0.2 BaCl2 pH 7.35). […]
Experiments were performed at room temperature. […] During this time leak currents were measured during a step to −110 mV (200 milliseconds). […]
T-type currents were measured as the peak inward current minus the current at the end of the 250 msec step to −20 mV. […] After incubation with compound for 10 minutes currents were measured again. […] For each compound, 8-point concentration-effect relationships were measured with ½ log serial dilutions. […]

T1 sequence (O95180 whole entry): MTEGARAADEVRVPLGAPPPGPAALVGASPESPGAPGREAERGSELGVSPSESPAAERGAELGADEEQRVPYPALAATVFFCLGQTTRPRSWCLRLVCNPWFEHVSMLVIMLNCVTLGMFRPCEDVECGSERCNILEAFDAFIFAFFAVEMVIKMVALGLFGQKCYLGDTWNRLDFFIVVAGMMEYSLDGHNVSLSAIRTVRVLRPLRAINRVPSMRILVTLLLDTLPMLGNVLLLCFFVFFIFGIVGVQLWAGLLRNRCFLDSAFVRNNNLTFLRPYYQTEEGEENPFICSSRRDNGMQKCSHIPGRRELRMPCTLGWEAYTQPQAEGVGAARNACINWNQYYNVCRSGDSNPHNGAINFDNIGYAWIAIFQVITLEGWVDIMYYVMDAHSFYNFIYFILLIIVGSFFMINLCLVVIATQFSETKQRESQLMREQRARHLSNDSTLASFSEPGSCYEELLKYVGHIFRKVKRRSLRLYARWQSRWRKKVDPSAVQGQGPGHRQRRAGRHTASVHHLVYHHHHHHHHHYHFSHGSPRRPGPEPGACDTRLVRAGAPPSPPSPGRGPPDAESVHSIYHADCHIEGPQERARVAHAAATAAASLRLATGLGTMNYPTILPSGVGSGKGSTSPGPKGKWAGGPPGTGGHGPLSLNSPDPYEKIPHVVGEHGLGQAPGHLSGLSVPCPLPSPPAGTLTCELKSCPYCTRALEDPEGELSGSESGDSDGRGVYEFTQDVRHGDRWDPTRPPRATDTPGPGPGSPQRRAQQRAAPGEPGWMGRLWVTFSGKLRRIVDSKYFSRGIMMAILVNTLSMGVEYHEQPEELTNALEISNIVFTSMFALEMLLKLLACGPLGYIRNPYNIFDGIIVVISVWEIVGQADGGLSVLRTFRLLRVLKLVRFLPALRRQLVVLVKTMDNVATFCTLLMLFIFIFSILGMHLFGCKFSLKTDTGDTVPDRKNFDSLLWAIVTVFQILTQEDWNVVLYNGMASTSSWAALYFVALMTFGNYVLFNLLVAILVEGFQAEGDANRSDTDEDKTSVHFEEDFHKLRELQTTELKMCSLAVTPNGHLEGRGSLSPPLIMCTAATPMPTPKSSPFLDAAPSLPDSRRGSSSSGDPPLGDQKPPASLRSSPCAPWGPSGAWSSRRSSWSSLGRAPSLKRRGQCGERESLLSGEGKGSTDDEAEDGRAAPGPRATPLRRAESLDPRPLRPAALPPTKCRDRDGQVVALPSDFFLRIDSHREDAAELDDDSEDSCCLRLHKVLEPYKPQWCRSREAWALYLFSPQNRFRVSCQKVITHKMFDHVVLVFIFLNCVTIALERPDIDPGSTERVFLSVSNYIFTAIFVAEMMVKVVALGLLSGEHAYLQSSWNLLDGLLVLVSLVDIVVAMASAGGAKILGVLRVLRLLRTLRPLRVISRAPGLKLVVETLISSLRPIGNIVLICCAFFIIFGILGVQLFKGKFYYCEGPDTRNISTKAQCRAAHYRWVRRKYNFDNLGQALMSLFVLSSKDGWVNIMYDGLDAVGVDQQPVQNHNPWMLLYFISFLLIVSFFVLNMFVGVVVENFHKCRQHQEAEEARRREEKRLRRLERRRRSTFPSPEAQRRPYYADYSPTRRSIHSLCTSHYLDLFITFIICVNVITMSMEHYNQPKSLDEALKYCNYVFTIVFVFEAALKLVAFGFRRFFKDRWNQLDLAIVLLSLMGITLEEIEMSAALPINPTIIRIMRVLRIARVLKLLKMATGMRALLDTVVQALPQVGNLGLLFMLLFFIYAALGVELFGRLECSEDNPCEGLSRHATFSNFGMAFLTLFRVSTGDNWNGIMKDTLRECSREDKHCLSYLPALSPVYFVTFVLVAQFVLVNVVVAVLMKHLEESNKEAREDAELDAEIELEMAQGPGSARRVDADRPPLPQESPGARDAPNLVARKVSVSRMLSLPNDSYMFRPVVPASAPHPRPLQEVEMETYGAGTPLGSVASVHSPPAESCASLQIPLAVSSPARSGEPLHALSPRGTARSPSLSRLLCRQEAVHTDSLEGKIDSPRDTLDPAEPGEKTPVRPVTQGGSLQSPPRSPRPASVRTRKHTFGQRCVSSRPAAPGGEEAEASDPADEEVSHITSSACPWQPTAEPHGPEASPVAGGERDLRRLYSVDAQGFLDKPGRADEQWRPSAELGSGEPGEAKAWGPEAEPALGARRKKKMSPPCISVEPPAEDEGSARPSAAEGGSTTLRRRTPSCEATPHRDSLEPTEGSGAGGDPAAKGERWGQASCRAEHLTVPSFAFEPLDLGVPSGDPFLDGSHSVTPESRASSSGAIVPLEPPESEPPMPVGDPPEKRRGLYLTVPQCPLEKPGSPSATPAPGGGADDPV

IC50 [µM]	SMILES
4.99	CC(C)N1CC2(CCN(c3ccccn3)CC2)C1c1ccc(Cl)cc1 (stereo not drawn) [Example 3, 1-(4-Chlorophenyl)-2-(1-methylethyl)-7-(2-pyridinyl)-2,7-diazaspiro[3.5]nonane, formic acid salt]
8.63	CC(C)N1CC2(CCN(c3ncccn3)CC2)C1c1ccc(Cl)cc1 (stereo not drawn) [Example 4, 1-(4-Chlorophenyl)-2-(1-methylethyl)-7-(2-pyrimidinyl)-2,7-diazaspiro[3.5]nonane, formic acid salt]
0.212	CC(C)N1CC2(CCN(c3nc4cc(F)c(C(F)(F)F)cc4[nH]3)CC2)C1c1ccc(Cl)cc1 (stereo not drawn) [Example 2]

Source: patent publication US20080070888A1, “AZETIDINE AND AZETIDONE DERIVATIVES USEFUL IN TREATING PAIN AND DISORDERS OF LIPID METABOLISM” (priority 2006, published 2008)
